System: Unknown protein yeast genes
Assay: DNA chip mRNA expression in yeast, unknown protein yeast genes (Table 1)
Format: cell-based, Saccharomyces cerevisiae S288C
In short: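 Whole-genome yeast DNA chip hybridization (65° C., >12 h) of Cy-labeled cDNA from S288C cells exposed 2 h at 25° C. to a sub-lethal toxicant dose in YPD; value is intensity relative to chemical-free control.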

Measured: The level of expressed mRNA in the presence of chemical substance/The level of expressed mRNA in the absence of chemical substance

C[S+](C)[O-] [(15), dimethylsulfoxide]
1.0: yeast gene YDR210W | yeast gene YHR029C | yeast gene YLR346C | yeast gene YLR415C | yeast gene YML041C | yeast gene YOR138C | yeast gene YPL221W
0.6: yeast gene YDR435C | yeast gene YOL101C
9.0: yeast gene YJL149W, incubated two hours with chemical substance
2.3: yeast gene YGR139W | yeast gene YPL152W
2.2: yeast gene YDL169C | yeast gene YDR476C | yeast gene YML013W | yeast gene YMR068W | yeast gene YNL058C
0.4: yeast gene YKR075C
1.1: yeast gene YBR012C | yeast gene YDR214W | yeast gene YKR040C | yeast gene YOR253W | yeast gene YPL150W
0.9: yeast gene YAR031W | yeast gene YFL024C | yeast gene YOL026C
1.6: yeast gene YCR013C | yeast gene YGL121C | yeast gene YJL037W
4.3: yeast gene YPL280W
7.5: yeast gene YIL117C, incubated two hours with chemical substance
6.8: yeast gene YER106W, incubated two hours with chemical substance
1.2: yeast gene YGR110W | yeast gene YNR051C | yeast gene YPL005W
1.4: yeast gene YAL034C | yeast gene YBL107C | yeast gene YDL027C | yeast gene YDR128W
1.8: yeast gene YOL150C | yeast gene YOR338W
6.9: yeast gene YAL018C
5.0: yeast gene YHR209W
8.8: yeast gene YOR248W, incubated two hours with chemical substance
0.3: yeast gene YGR035C | yeast gene YML079W
4.1: yeast gene YBL048W
2.9: yeast gene YPR077C, cells incubated two hours with the chemical substance
2.1: yeast gene YDR070C
0.5: yeast gene YBR101C, incubated two hours with substance | yeast gene YDR078C, incubated two hours with substance | yeast gene YDR202C, incubated two hours with substance | yeast gene YER124C, incubated two hours with substance | yeast gene YER182W, incubated two hours with substance | yeast gene YGR211W, incubated two hours with substance | yeast gene YJR085C, incubated two hours with substance | yeast gene YLR311C, incubated two hours with substance | yeast gene YLR392C | yeast gene YMR041C, incubated two hours with substance | yeast gene YNL194C | yeast gene YNL253W
0.7: yeast gene YBR062C | yeast gene YDR250C | yeast gene YDR278C | yeast gene YLR008C | yeast gene YLR297W | yeast gene YLR460C | yeast gene YNL063W | yeast gene YPL180W
0.8: yeast gene YER037W | yeast gene YHR054C | yeast gene YHR095W | yeast gene YJR030C | yeast gene YLR427W | yeast gene YML029W | yeast gene YNL026W | yeast gene YNL176C | yeast gene YNL200C | yeast gene YNL211C | yeast gene YOR022C | yeast gene YOR087W | yeast gene YPL168W | yeast gene YPL188W
1.9: yeast gene YAR064W | yeast gene YMR090W
4.4: yeast gene YOL031C
1.7: yeast gene YKL071W | yeast gene YKL107W | yeast gene YPR148C
1.3: yeast gene YBR287W | yeast gene YDL110C | yeast gene YLR226W | yeast gene YOR049C | yeast gene YOR267C
1.5: yeast gene YLL056C | yeast gene YMR160W | yeast gene YPR049C | yeast gene YPR172W
3.9: yeast gene YGR284C
2.5: yeast gene YMR315W
7.1: yeast gene YDL222C, incubated two hours with chemical substance
